Structures can show the parent of a compound that is named as a salt.
Tested on: c-Myc
Experiment: c-Myc immunofluorescence assay
Assay type: cell-based, human
Settings: A549 cells, 24 hours treatment, anti-c-Myc immunofluorescence
Description: A549 human non-small cell lung carcinoma cells were treated for 24 hours with increasing compound concentration, cells were fixed and stained with a nuclei stain (DAPI) and anti-c-Myc fluorescent antibody. The c-Myc signal was quantified by image analysis, and data was exported and analyzed using TIBCO Spotfire® (TIBCO Corporation). Dose response curves were generated and fitted with logaristic regression to calculate potency (EC50 values). Potency values are presented in Table 2 for all compounds and are shown for selected compounds (FIG. 4).
A549 cells were grown in 384-wells plates (Perkin Elmer, Cat. 6057300) for 48 hours, treated with compounds and then fixed for 20 min in 4% paraformaldehyde. After that permeabilization was done using 0.1% Triton X-100 in PBS for 20 min. Primary anti-c-Myc antibody (Abcam, ab32072) staining was performed for 90 min at room temperature. Cells then were washed twice with PBS and incubated with secondary antibody (Abcam, ab150075) for 90 min at room temperature. Nuclei were stained with DAPI for 10 min and washed twice with PBS.
Cell images were taken with Operetta (Perkin Elmer, USA), a wide-field fluorescence microscope at 20× magnification. After acquisition, the images were transferred to Columbus software (Perkin-Elmer) for image analysis. In Columbus, cells were identified by their nucleus, using the “Find Nuceli” module and cytoplasm was detected based on the secondary antibody channel. Subsequently, the fluorescent signal was enumerated in the identified cell region. Then data was exported to a data analysis and visualization software, Tibco Spotfire, USA.

SMILES	Myc Efficacy (−LogEC50)
O=C(NCCCN1CCC(F)CC1)c1cc2sc3nc(-c4ccc([C@@H]5CCCN5)cc4F)cn3c2cn1 [Compound 509S, (S)-2-(2-fluoro-4-(pyrrolidin-2-yl)phenyl)-N-(3-(4-fluoropiperidin-1-yl)propyl)imidazo[2′,1′:2,3]thiazolo[4,5-c]pyridine-7-carboxamide]	+++ (+++ ≥6)
O=C(NC1CCOCC1)c1ccc2c(c1)sc1nc(-c3ccc(C4CCCN4)cc3F)cn12 (stereo not shown) [Compound 510, 2-(2-fluoro-4-(pyrrolidin-2-yl)phenyl)-N-(tetrahydro-2H-pyran-4-yl)benzo[d]imidazo[2,1-b]thiazole-7-carboxamide]	+++ (+++ ≥6)
NC(=O)c1ccc2c(c1)sc1nc(-c3ccc(C4CCNC4)cc3F)cn12 (stereo not shown) [Compound 511, 2-(2-fluoro-4-(pyrrolidin-3-yl)phenyl)benzo[d]imidazo[2,1-b]thiazole-7-carboxamide]	+++ (+++ ≥6)
O=C(NCCCN1CCC(F)CC1)c1ccc2c(c1)sc1nc(-c3ccc(C4(O)CCNCC4)cc3F)cn12 [Compound 512, 2-(2-fluoro-4-(4-hydroxypiperidin-4-yl)phenyl)-N-(3-(4-fluoropiperidin-1-yl)propyl)benzo[d]imidazo[2,1-b]thiazole-7-carboxamide]	+++ (+++ ≥6)
O=C(NCCCN1CCC(F)CC1)c1ccc2c(c1)sc1nc(-c3ccc(C4CCCNC4)cc3F)cn12 (stereo not shown) [Compound 513, 2-(2-fluoro-4-(piperidin-3-yl)phenyl)-N-(3-(4-fluoropiperidin-1-yl)propyl)benzo[d]imidazo[2,1-b]thiazole-7-carboxamide]	+++ (+++ ≥6)
NC(=O)c1cc2sc3nc(-c4ccc(C5CCCN5)cc4F)cn3c2cn1 (stereo not shown) [Compound 514, 2-(2-fluoro-4-(pyrrolidin-2-yl)phenyl)imidazo[2′,1′:2,3]thiazolo[4,5-c]pyridine-7-carboxamide]	+++ (+++ ≥6)
CNC(=O)c1cc2sc3nc(-c4ccc(C5CCCN5)cc4F)cn3c2cn1 (stereo not shown) [Compound 515, 2-(2-fluoro-4-(pyrrolidin-2-yl)phenyl)-N-methylimidazo[2′,1′:2,3]thiazolo[4,5-c]pyridine-7-carboxamide]	+++ (+++ ≥6)
O=C(NCCCN1CCC(F)CC1)c1ccc2c(c1)sc1nc(-c3ccc(C4(O)CCNC4)cc3F)cn12 (stereo not shown) [Compound 516, 2-(2-fluoro-4-(3-hydroxypyrrolidin-3-yl)phenyl)-N-(3-(4-fluoropiperidin-1-yl)propyl)benzo[d]imidazo[2,1-b]thiazole-7-carboxamide]	+++ (+++ ≥6)
CN1CCC(NC(=O)c2ccc3c(c2)sc2nc(-c4ccc(C5COCCN5)cc4F)cn23)CC1 (stereo not shown) [Compound 517, 2-(2-fluoro-4-(morpholin-3-yl)phenyl)-N-(1-methylpiperidin-4-yl)benzo[d]imidazo[2,1-b]thiazole-7-carboxamide]	+++ (+++ ≥6)
CN1CCC(NC(=O)c2ccc3c(c2)sc2nc(-c4ccc(C5CNCCO5)cc4F)cn23)CC1 (stereo not shown) [Compound 519, 2-(2-fluoro-4-(morpholin-2-yl)phenyl)-N-(1-methylpiperidin-4-yl)benzo[d]imidazo[2,1-b]thiazole-7-carboxamide]	+++ (+++ ≥6)
CN1CCC(NC(=O)c2ccc3c(c2)sc2nc(-c4ccc([C@@H]5C[C@@H](O)CN5)cc4F)cn23)CC1 [Compound 522R, 2-(2-fluoro-4-((2S,4R)-4-hydroxypyrrolidin-2-yl)phenyl)-N-(1-methylpiperidin-4-yl)benzo[d]imidazo[2,1-b]thiazole-7-carboxamide]	+++ (+++ ≥6)
CN1CCC(NC(=O)c2ccc3c(c2)sc2nc(-c4ccc([C@@H]5C[C@H](O)CN5)cc4F)cn23)CC1 [Compound 522S, 2-(2-fluoro-4-((2S,4S)-4-hydroxypyrrolidin-2-yl)phenyl)-N-(1-methylpiperidin-4-yl)benzo[d]imidazo[2,1-b]thiazole-7-carboxamide]	+++ (+++ ≥6)
O=C(NC1CCCOC1)c1ccc2c(c1)sc1nc(-c3ccc(C4CCCN4)cc3F)cn12 (stereo not shown) [Compound 525, 2-(2-fluoro-4-(pyrrolidin-2-yl)phenyl)-N-(tetrahydro-2H-pyran-3-yl)benzo[d]imidazo[2,1-b]thiazole-7-carboxamide]	+++ (+++ ≥6)
O=C(NC1CCOCC1)c1ccc2c(c1)sc1nc(-c3ccc(C4CCNCC4)cc3F)cn12 [Compound 529, 2-(2-fluoro-4-(piperidin-4-yl)phenyl)-N-(tetrahydro-2H-pyran-4-yl)benzo[d]imidazo[2,1-b]thiazole-7-carboxamide]	+++ (+++ ≥6)
O=C(NC1CCOCC1)c1ccc2c(c1)sc1nc(-c3ccc(C4COCCN4)cc3F)cn12 (stereo not shown) [Compound 534, 2-(2-fluoro-4-(morpholin-3-yl)phenyl)-N-(tetrahydro-2H-pyran-4-yl)benzo[d]imidazo[2,1-b]thiazole-7-carboxamide]	+++ (+++ ≥6)
O=C(NC1CCOCC1)c1ccc2c(c1)sc1nc(-c3ccc(C4CNCCO4)cc3F)cn12 (stereo not shown) [Compound 535, 2-(2-fluoro-4-(morpholin-2-yl)phenyl)-N-(tetrahydro-2H-pyran-4-yl)benzo[d]imidazo[2,1-b]thiazole-7-carboxamide]	+++ (+++ ≥6)
CN1CCC(NC(=O)c2ccc3c(c2)sc2nc(-c4ccc(C5(F)CCNCC5)cc4F)cn23)CC1 [Compound 536, 2-(2-fluoro-4-(4-fluoropiperidin-4-yl)phenyl)-N-(1-methylpiperidin-4-yl)benzo[d]imidazo[2,1-b]thiazole-7-carboxamide]	+++ (+++ ≥6)
O=C1CNC(c2ccc(-c3cn4c(n3)sc3cc(C(=O)NC5CCOCC5)ccc34)c(F)c2)C1 (stereo not shown) [Compound 537, 2-(2-fluoro-4-(4-oxopyrrolidin-2-yl)phenyl)-N-(tetrahydro-2H-pyran-4-yl)benzo[d]imidazo[2,1-b]thiazole-7-carboxamide]	+++ (+++ ≥6)
NC(CO)c1ccc(-c2cn3c(n2)sc2cc(C(=O)NCCCN4CCC(F)CC4)ccc23)c(F)c1 (stereo not shown) [Compound 539, 2-(4-(1-amino-2-hydroxyethyl)-2-fluorophenyl)-N-(3-(4-fluoropiperidin-1-yl)propyl)benzo[d]imidazo[2,1-b]thiazole-7-carboxamide]	+++ (+++ ≥6)
O=C(NCCCN1CCC(F)CC1)c1ccc2c(c1)sc1nc(-c3ccc(C4CC(C(F)F)CN4)cc3F)cn12 (stereo not shown) [Compound 542, 2-(4-(4-(difluoromethyl)pyrrolidin-2-yl)-2-fluorophenyl)-N-(3-(4-fluoropiperidin-1-yl)propyl)benzo[d]imidazo[2,1-b]thiazole-7-carboxamide]	+++ (+++ ≥6)
O=C(NCCCN1CCC(F)CC1)c1ccc2c(c1)sc1nc(-c3ccc(C4CCNO4)cc3F)cn12 (stereo not shown) [Compound 543, 2-(2-fluoro-4-(isoxazolidin-5-yl)phenyl)-N-(3-(4-fluoropiperidin-1-yl)propyl)benzo[d]imidazo[2,1-b]thiazole-7-carboxamide]	+++ (+++ ≥6)
CN1CCC(NC(=O)c2ccc3c(c2)sc2nc(-c4ccc(N5CCNCC5)cc4F)cn23)CC1 [Compound 547, 2-(2-fluoro-4-(piperazin-1-yl)phenyl)-N-(1-methylpiperidin-4-yl)benzo[d]imidazo[2,1-b]thiazole-7-carboxamide]	+++ (+++ ≥6)
CC(=O)Nc1ccc2c(c1)sc1nc(-c3ccc(C4CCCN4)cc3F)cn12 (stereo not shown) [Compound 548, N-(2-(2-fluoro-4-(pyrrolidin-2-yl)phenyl)benzo[d]imidazo[2,1-b]thiazol-7-yl)acetamide]	+++ (+++ ≥6)
CN1CCC(C(=O)Nc2ccc3c(c2)sc2nc(-c4ccc(C5CCCN5)cc4F)cn23)CC1 (stereo not shown) [Compound 593, N-(2-(2-fluoro-4-(pyrrolidin-2-yl)phenyl)benzo[d]imidazo[2,1-b]thiazol-7-yl)-1-methylpiperidine-4-carboxamide dihydrochloride]	+++ (+++ ≥6)
O=C(Nc1ccc2c(c1)sc1nc(-c3ccc(C4CCCN4)cc3F)cn12)C1CCOCC1 (stereo not shown) [Compound 594, N-(2-(2-fluoro-4-(pyrrolidin-2-yl)phenyl)benzo[d]imidazo[2,1-b]thiazol-7-yl)tetrahydro-2H-pyran-4-carboxamide hydrochloride]	+++ (+++ ≥6)
O=C(NCCCN1CCC(F)CC1)c1ccc2c(c1)sc1nc(-c3cc4c(cc3F)CCNC4)cn12 [Compound 600, 2-(6-fluoro-1,2,3,4-tetrahydroisoquinolin-7-yl)-N-(3-(4-fluoropiperidin-1-yl)propyl)benzo[d]imidazo[2,1-b]thiazole-7-carboxamide dihydrochloride]	+++ (+++ ≥6)
O=C(NCCCN1CCC(F)CC1)c1ccc2c(c1)sc1nc(-c3cc4c(cc3F)NCC4)cn12 [Compound 602, 2-(6-fluoroindolin-5-yl)-N-(3-(4-fluoropiperidin-1-yl)propyl)benzo[d]imidazo[2,1-b]thiazole-7-carboxamide]	+++ (+++ ≥6)
O=C(NCCCN1CCCCC1)c1ccc2c(c1)sc1nc(-c3ccccc3)cn12 [compound 101, 2-phenyl-N-(3-(piperidin-1-yl)propyl)benzo[d]imidazo[2,1-b]thiazole-7-carboxamide]	+++ (+++ ≥6)

— US12404283B2, “c-MYC mRNA translation modulators and uses thereof in the treatment of cancer” (Anima Biotech Inc., priority 2022, dated 2025)
